{"source": "patent US10981911B2", "about": "“Imidazopyrrolopyridine as inhibitors of the JAK family of kinases” (Janssen Pharmaceutica NV, priority 2016, dated 2021)", "data": [{"biological_target": "JAK2-JH1JH2 (Homo sapiens (Human), UniProt O60674)", "sequence (O60674 532-1132)": "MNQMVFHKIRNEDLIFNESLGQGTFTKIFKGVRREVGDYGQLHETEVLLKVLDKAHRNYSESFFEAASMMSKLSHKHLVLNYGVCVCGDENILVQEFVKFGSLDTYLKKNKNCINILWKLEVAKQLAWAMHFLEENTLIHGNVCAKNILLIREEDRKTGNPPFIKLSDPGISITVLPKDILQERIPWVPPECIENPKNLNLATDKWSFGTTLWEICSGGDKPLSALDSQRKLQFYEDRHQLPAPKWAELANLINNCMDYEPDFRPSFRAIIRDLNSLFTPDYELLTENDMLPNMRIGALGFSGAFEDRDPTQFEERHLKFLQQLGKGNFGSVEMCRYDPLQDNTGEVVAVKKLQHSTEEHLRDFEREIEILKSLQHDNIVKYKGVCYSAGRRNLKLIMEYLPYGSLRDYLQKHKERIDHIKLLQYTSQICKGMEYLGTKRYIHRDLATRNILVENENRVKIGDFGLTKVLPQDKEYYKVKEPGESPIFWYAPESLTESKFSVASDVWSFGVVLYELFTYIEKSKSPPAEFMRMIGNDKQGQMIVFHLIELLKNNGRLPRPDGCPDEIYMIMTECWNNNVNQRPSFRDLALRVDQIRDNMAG", "experiment": "Enzymatic inhibition assay (RapidFire HTMS), JAK2", "type": "biochemical", "details": "30 μM ATP, 40 μM substrate", "how_it_was_run": "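Quenched with 0.5% TFA plus internal-standard peptide; phosphorylated product quantified by RapidFire C4 SPE–ESI-MS, 11-point 1:3 or 1:4 dilutions in duplicate.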", "units": {"IC50": "nM"}, "values": [{"compound": "CC(C)(O)CNC(=O)Cc1nc2cnc3[nH]ccc3c2n1[C@H]1CC[C@H](CC#N)CC1", "note": "[Ex. 1, 2-(1-((1r,4r)-4-(Cyanomethyl)cyclohexyl)-1,6-dihydroimidazo[4,5-d]pyrrolo[2,3-b]pyridin-2-yl)-N-(2-hydroxy-2-methylpropyl)acetamide]", "IC50": 8.2}, {"compound": "CC(C)(C#N)CNC(=O)Cc1nc2cnc3[nH]ccc3c2n1[C@H]1CC[C@H](CC#N)CC1", "note": "[Ex. 22, N-(2-Cyano-2-methylpropyl)-2-(1-((1r,4r)-4-(cyanomethyl)cyclohexyl)-1,6-dihydroimidazo[4,5-d]pyrrolo[2,3-b]pyridin-2-yl)acetamide]", "IC50": 5.4}, {"compound": "N#CC[C@H]1CC[C@H](n2c(CC(=O)NCC3(O)CCC3)nc3cnc4[nH]ccc4c32)CC1", "note": "[Ex. 34, 2-(1-((1r,4r)-4-(Cyanomethyl)cyclohexyl)-1,6-dihydroimidazo[4,5-d]pyrrolo[2,3-b]pyridin-2-yl)-N-((1-hydroxycyclobutyl)methyl)acetamide]", "IC50": 3.1}, {"compound": "N#CCC12CCC(NC(=O)Cc3nc4cnc5[nH]ccc5c4n3[C@H]3CC[C@H](CC#N)CC3)(CC1)C2", "note": "[Ex. 55, N-(4-(Cyanomethyl)bicyclo[2.2.1]heptan-1-yl)-2-(1-((1r,4r)-4-(cyanomethyl)cyclohexyl)-1,6-dihydroimidazo[4,5-d]pyrrolo[2,3-b]pyridin-2-yl)acetamide]", "IC50": 2.9}, {"compound": "N#CC[C@H]1CC[C@H](n2c(CC(=O)NCC3(O)CC3)nc3cnc4[nH]ccc4c32)CC1", "note": "[Ex. 85, 2-(1-((1r,4r)-4-(Cyanomethyl)cyclohexyl)-1,6-dihydroimidazo[4,5-d]pyrrolo[2,3-b]pyridin-2-yl)-N-((1-hydroxycyclopropyl)methyl)acetamide]", "IC50": 6.2}]}, {"system": "MDCK-MDR1 cell line", "experiment": "MDCK-MDR1 permeability assay", "type": "in vitro ADME", "details": "@ 5 μM, apical to basolateral, with P-gp inhibitor elacridar (2 μM)", "protocol": "Permeability measurements were conducted according to the Cyprotex protocol using the MDCK-MDR1 cell line obtained from the NIH (Rockville, Md., USA). Cells between passage numbers 6-30 were seeded onto a Multiscreen Plate™ (Millipore) at a cell density of 3.4×10^5 cells/cm^2 and cultured for three days before permeability studies were conducted. The cells in this assay form a cohesive sheet of a single cell layer filing the surface area of the culture dish, also known as a confluent monolayer, and on day four the test compound was added to the apical side of the membrane and the transport of the compound across the monolayer was monitored over a time period of 60 min.\nTest compounds were dissolved in DMSO at a concentration of 10 mM. The dosing solutions were prepared by diluting test compound with assay buffer (Hanks Balanced Salt Solution), pH 7.4, at a final concentration of 5 μM. For assessment of apical to basolateral (“A-B”) permeability, buffer was removed from the apical compartment and replaced with test compound dosing solution with or without the permeability glycoprotein (“PgP”, “P-gP”, “Pgp” or “P-gp”) inhibitor elacridar (2 μM). For assessment of basolateral to apical (“B-A”) permeability, buffer was removed from the companion plate and replaced with test compound dosing solution. Incubations were carried out in duplicate at 37° C. in an atmosphere of 5% CO2 with a relative humidity of 95%. Each assay included the reference markers propranolol (high permeability) and prazosin (PgP substrate). After incubation for 60 minutes, apical and basolateral samples were diluted and test compounds quantified by LC/MS/MS using an 8-point calibration in the range 0.0039 to 3 μM with appropriate dilution of the samples (receiver dilution factor=1; donor and C0 dilution factor=10). The permeability coefficient (Papp) for each compound was calculated from the following equation: Papp=(dQ/dt)/(C0×S), where dQ/dt is the rate of permeation of the drug across the cells, C0 is the donor compartment concentration at time zero, and S is the area of the cell monolayer.\nThe second and third columns in Table 7 show the values of Papp(A-B) for the apical-to-basolateral compound transport without (second column) and with a P-gp inhibitor (third column, noted as P^eapp(A-B)) that was elacridar. Papp(A-B) gives an indication of permeation extent across the cells in this assay, which is envisaged to model the transcellular transport across Pgp-expressing cells, such as Pgp-expressing gastrointestinal tract cells. P^eapp(A-B) values (Papp(A-B) in the presence of the P-gp inhibitor) given in column 3 are determined to confirm the role of P-gp in the compound efflux. […] Test compound efflux ratios are given in the fifth column of Table 7 as Papp(B-A)/Papp(A-B) by using the corresponding permeability coefficient values from the fourth and second columns in the same table.", "values": [{"compound": "N#CC[C@H]1CC[C@H](n2c(CC(=O)NC3CCOCC3)nc3cnc4[nH]ccc4c32)CC1", "note": "[Ex. 5, 2-(1-((1r,4r)-4-(Cyanomethyl)cyclohexyl)-1,6-dihydroimidazo[4,5-d]pyrrolo[2,3-b]pyridin-2-yl)-N-(tetrahydro-2H-pyran-4-yl)acetamide]", "MDCK-MDR1 P^eapp(A-B)": "0.5 10^−6 cm/sec"}]}]}
